Experiment [1] concerns the target T1, cardiac troponin C (cTnC) (Homo sapiens, UniProt P63316, C35S/C84S). Description: 2D [1H, […]]-HSQC NMR titration. Type of experiment: binding.
Experiment [2] deals with T1, cardiac troponin C (cTnC). Description: 2D [1H, […]]-HSQC NMR titration. Format: binding. This is another data set of the same source.

As usually defined, the Kd is the equilibrium constant for the complex coming apart. Read a low Kd as higher affinity. In the case of `Clc1cccc(Nc2ccccc2)c1` [3-Cl-DPA, 3-Chlorodiphenylamine], in experiment [1], the Kd was 6 ± 1 µM. Turning to `CC(C)COCC(CN(Cc1ccccc1)c1ccccc1)N1CCCC1` (centres unmarked) [bepridil], in experiment [2], the “2D [1H,15N]-HSQC NMR titration” value is “As bepridil is titrated into cTnC, NMR signals corresponding to the cNTnC domain move as the conformational equilibrium shifts”.

These data come from PMC6314390 (The Journal of General Physiology, 2019).
